Laboratory results from patent US20250346588A1, “IMIDAZOPYRIDINE AND OXAZOLOPYRIDINE DERIVATIVES AND ANALOGS THEREOF, METHODS OF PREPARATION THEREOF, METHODS OF HIF-1/2A PATHWAY INHIBITION, AND INDUCTION OF FERROPTOSIS” (KUDA THERAPEUTICS, INC., priority 2022, published 2025).

What was measured:
[1] = Bioavailability studies; assay type: in vivo; details: Swiss albino mice, at a 100 mg/kg dose
[2] = system: HIF-1α and HIF-2α; test: Western blots for HIF-1α and HIF-2α in ccRCC cells; assay type: cell-based, human; details: 786-0 or RCC10 ccRCC cells, 24h, relative to GAPDH
Description: (§1) Western blots were performed to determine the effects of the compounds on levels of HIF-2α and other relevant proteins, whereas qPCR was performed to determine the effects of compounds on transcript levels of HIF target genes. 786-0 or RCC10 cells were plated at 1×10E5 cells/well in 2 ml DMEM with 10% FBS/well in 6-well tissue culture plates. Cells were allowed to adhere overnight in a humidified incubator at 37° C. with 5% CO2, after which the appropriate concentrations of compounds in DMSO were added. DMSO concentrations were kept constant in all wells. After 24 h exposure to the compounds, cells were lysed and subjected to western blotting according to standard protocols. Antibodies for HIF-1α and HIF-2α and GAPDH were purchased from Cell Signaling Technology (Danvers, MA), whereas antibodies to IRP2 and pVHL were from Santa Cruz Biotechnology (Dallas, TX), and GPX4 antibody was from R&D Systems, Inc (Minneapolis, MN). Representative data in FIG. 2 show a dose-dependent effect of compounds in decreasing HIF-1/2α. Compounds also impact cellular iron sensing given by increased IRP2, which taken together indicate that cells sense decreased amounts of available iron, which triggers the iron starvation response initiated by IRP2 stabilization. Representative data shown in FIG. 3D show a dose dependent effect of the compounds on GPX4, which may indicate decreased resistance to ferroptosis. […] The data also show increased expression of ISCA2 with pVHL re-expression.

[3] = system: IRP2 and GPX4; test: Western blots for cellular iron-sensing machinery (IRP2, GPX4); assay type: cell-based, human; details: 786-0 or RCC10 ccRCC cells, 24h, relative to GAPDH
Description: as §1

[4] = system: HIF-2α Iron-Responsive Element (IRE); test: HIF-2α IRE-Luc reporter assay; assay type: cell-based, human; details: 786-0 cells stably expressing HIF-2α IRE-Luc, 24h
Description: Screens for inhibitory activity of compounds described herein were performed using 786-0 ccRCC cells that stably express HRE-Luc: 5 copies of the hypoxia-responsive element (HRE) fused to the pGL3 luciferase reporter (Promega Corp, Madison WI). 786-0 cells are pVHL deficient and thus constitutively express HIF-2α independently of cellular oxygen tension. Since 786-0 cells lack HIF-1α, HRE-driven luciferase activity is primarily HIF-2α driven, and has been previously validated. Cells were maintained at log phase growth in […] (DMEM) with 10% FBS in a humidified incubator at 37° C. with 5% CO2. For screening assays, cells were seeded at a density of 4,000 cells in 50 μl of complete media/well in quadruplicate wells/point in a 96-well plate. After 24 h, 50 μl of a 2× concentration of test compound was added to each well. […] After 24 h treatment, luciferase activity was measured using the Steady-Glo Luciferase assay system (Promega Corp) according to the manufacturer's protocol. Cell viability was measured in quadruplicate parallel wells using resazurin as recommended by the manufacturer (R&D systems, Minneapolis, MN). […] Representative data determined using Steady-Glo luciferase and resazurin are shown in FIGS. 1A and 1B respectively, with error bars showing SD. […]

[5] = system: 786-0 cells; test: TBARS assay of lipid peroxidation (MDA); assay type: cell-based, human; details: 48h treatment
Description: Malondialdehyde (MDA) is an end product of lipid peroxidation products and can be used to indicate lipid peroxidation, which is a hallmark of ferroptosis. MDA adducts were quantitated in cells and tumor tissue using the TBARS-TCA Method kit (Cat 700870, Cayman Chemicals, Ann Arbour Michigan) according to the manufacturer's protocol. Briefly, 786-0 cells were seeded at 1.75×10E6 cells in T75 cm^2 flasks, allowed to adhere overnight in a humidified incubator at 37° C. with 5% CO2, then treated with test compounds for 48 h, RSL3 (as positive control for 6h) or DMSO control (volume of DMSO kept constant for all flasks). Cells were detached by trypsinization, pelleted by centrifugation, washed in PBS twice, resuspended in 200 μL PBS, then sonicated for 3 minutes in a sonicating water bath. Representative data showing effects of 26HCL or 62TFA in comparison to RSL3, a classical ferroptosis inducer, is shown in FIG. 5. For MDA quantitation in tumor chunks, 20-50 mg of tumor tissue was homogenized in 200-500 μL of PBS, then sonicated for 5 minutes in a sonicating water bath. The cell or tumor lysates were subjected to the colorimetric detection methods described in manufacturer's protocol. MDA concentration of cells was determined in comparison to a standard curve of MDA stock solution provided by the manufacturer. Data was plotted using Prism GraphPad 9.3.1 Software. […]

[6] = system: RENCA syngeneic tumors; test: RENCA syngeneic tumor model, immunohistochemistry of tumors; assay type: in vivo; details: Balb/c mice, once daily oral dosing, 14 days
Description: A similar study was performed using RENCA cells, which are derived from a renal tumor that arose spontaneously in a male Balb/c mouse. RENCA cells were purchased from ATCC and 2 million cells were implanted into the flanks of Balb/c mice. Once tumors attained an average size of approximately 75-100 mm^3, mice were stratified into two groups and animals treated with either vehicle or 70 mg/kg 26HCL once daily PO. Mouse tumor volumes were measured three times a week until tumors reached approximately 3000 mm^3, or mice required euthanasia. […] FIG. 10B through 10D show western blot quantitation and MDA quantitation by TBARs assay, as performed for the 786-0 xenografts.
Similar studies were performed using 786-0 and RENCA tumor models treated with 62TFA. […] Immunohistochemistry was performed using standard techniques using CD8 (CST98941) and CD31 (CST77699) purchased from Cell Signaling Technologies.

[7] = system: RCC4 or 786-0 cells±pVHL re-expression; test: Cell viability with pVHL re-expression; assay type: cell-based, human; details: 48h

For `COc1nccc2[nH]c(Nc3nnc([C@H]4CC[C@@H](OC)CC4)o3)nc12` [Compound 62TFA, N-(4-methoxy-1H-imidazo[4,5-c]pyridin-2-yl)-5-((1s,4s)-4-methoxycyclohexyl)-1,3,4-oxadiazol-2-amine], the half-life [1] was 7 h, the “Bioavailability F” value ([1]; oral) was 55% and the “effect on HIF-1α and HIF-2α protein (Western blot)” value [2] was “decreases HIF-1α and HIF-2α”. For the same molecule, the “effect on IRP2 protein (Western blot)” value [3] was “increases IRP2”, the “effect on IRE-luciferase reporter activity normalized to resazurin” value [4] was “decrease IRE-mediated translation of HIF-2α” and the “lipid peroxidation (MDA-TBA adducts)” value [5] was “induce lipid peroxidation to an extent comparable to the ferroptosis inducer RSL3”. The “CD8 cytotoxic T-cell infiltration (immunohistochemistry of tumors)” value [6] was “increases CD8-T cell infiltration”, the “angiogenesis (CD31 immunohistochemistry of tumors)” value [6] was “markedly decreases angiogenesis” and the “effect of pVHL re-expression on cell viability response to compound” value [7] was “re-expression of pVHL promotes resistance”.
